From patent US20070142397A2, “PHENYPIPERAZINE DERIVATIVES WITH A COMBINATION OF PARTIAL DOPAMINE-D2 RECEPTOR AGONISM AND SEROTONIN REUPTAKE INHIBITION” (SOLVAY PHARMECEUTICALS B.V., priority 2004, published 2007) come the findings set out here.

Structures can show the parent of a compound that is named as a salt. Where two headings read alike, the source gives them in different places.

In one series the target is T1, dopamine-D2 receptors (Rattus norvegicus, UniProt P61169).
T1 construct: labels dopamine receptors in rat pituitary and brain; from tissue; host or cells: rat brain / pituitary membranes (from the title of the cited method)
The series can be described thus: In vitro affinity for dopamine-D2 receptors ([3H]-spiroperidol receptor binding assay, Creese et al.). As for the experimental part:
In Vitro Affinity for Dopamine-D2 Receptors
Affinity of the compounds for dopamine-D2 receptors was determined using the receptor binding assay described by I. Creese, R. Schneider and S. H. Snyder: “[^3H]-Spiroperidol labels dopamine receptors in rat pituitary and brain”, Eur. J. Pharmacol., 46, 377-381, 1977.
(§1) The affinity of the compounds of the invention for dopamine-D2 receptors and serotonine reuptake sites was determined as described above. From the binding affinity measured for a given compound of formula (1), one can estimate a theoretical lowest effective dose. At a concentration of the compound equal to twice the measured Ki-value, 100% of the receptors likely will be occupied by the compound. Converting that concentration to mg of compound per kg of patient yields a theoretical lowest effective dose, assuming ideal bioavailability. Pharmacokinetic, pharmacodynamic, and other considerations may alter the dose actually administered to a higher or lower value. The dosage expediently administered is 0.001-1000 mg/kg, preferably 0.1-100 mg/kg of patient's bodyweight.

The target of a further series is T2, serotonin reuptake sites (Rattus norvegicus, UniProt P31652).
T2 construct: from tissue; host or cells: rat cortical membranes (from the title of the cited method)
The series can be described thus: In vitro affinity for serotonin reuptake sites ([3H]-paroxetine binding assay, Habert et al.). The protocol:
In Vitro Affinity for Serotonin Reuptake Sites
Affinity of the compounds for serotonin reuptake sites was determined using the receptor binding assay described by E. Habert et al.,: “Characterisation of [^3H]-paroxetine binding to rat cortical membranes”, Eur. J. Pharmacol., 118, 107-114, 1985.
as §1

Series [1] has as its target T3, Human dopamine D2,L receptors (Homo sapiens, UniProt P14416).
T3 construct: host or cells: CHO-K1
The series can be described thus: Inhibition of forskolin-induced [3H]-cAMP accumulation in CHO-K1 cells. The class given is cell-based. The settings on record: Cloned human dopamine D2,L receptors, full agonist ε=1, full antagonist ε=0. The protocol:
Inhibition of Forskolin-Induced [^3H]-cAMP Accumulation
The in vitro functional activity at dopamine-D2 receptors, including the intrinsic activity (ε) of the compounds of the invention was measured by their ability to inhibit forskolin-induced [^3H]-cAMP accumulation.
Human dopamine D2,L receptors were Cloned in fibroblast cell line CHO-K1 cells and obtained from Dr. Grandy, Vollum Institute, Portland, Oreg., USA. CHO cells were grown in a Dulbecco's modified Eagle's medium (DMEM) culture medium, supplemented with 10% heat-inactivated fetal calf serum, 2 mM glutamine, 1 mM pyruvate, 5000 units/ml penicillin, 5000 μg/ml streptomycin and 200 μg/ml G-418 at 37° C. in 93% air/7% CO2. For incubation with test compounds, confluent cultures grown in 24 wells plates were used. Each condition or substance was routinely tested in quadruplicate. Cells were loaded with 1 μci [^3H]-adenine in 0.5 ml medium/well. After 2 hours, cultures were washed with 0.5 ml PBS containing 1 mM of the phospho-diesterase inhibitor isobutylmethylxanthine (IBMX) and incubated for 20 min with 0.5 ml PBS containing 1 mM IBMX and forskolin with or without test compound. After aspiration the reaction was stopped with 1 ml trichloroacetic acid 5% (w/v). […] 0.8 ml Extract was passed over Dowex (50WX-4 200-400 mesh) and aluminumoxide columns, eluted with water and 0.1M imidazole (pH=7.5). Eluates were mixed with 7 ml Insta-gel and radioactivity was counted with a liquid scintillation counter. The conversion of [^3H]-ATP into [^3H]-cAMP was expressed as the ratio in percentage radioactivity in the cAMP fraction as compared to combined radioactivity in both cAMP and ATP fractions, and basal activity was subtracted to correct for spontaneous activity.
Test compounds were obtained as 10 mM stock solutions in 100% DMSO, and diluted in PBS/IBMX to final concentrations. Typically, compounds were used in concentrations that ranged from 10^−10M to 10^−5M. From quadruplicate data counts, the mean was taken as an estimate for drug-induced, receptor-mediated effects at specified second messenger accumulation, expressed as percentage of control values (forskolin-stimulated cAMP accumulation, subtracted by basal activity). By using the non-linear curve-fitting program INPLOT or the Excel-add-in XL-Fit, mean values were plotted against drug concentration (in molar) and a sigmoid curve (four-parameter logistic curve) was constructed. The maximal forskolin-induced stimulated conversion is taken as maximum value and the maximal inhibition (usually at drug concentrations 10^−6 M or 10^−5 M) as minimum and these values were fixed during the fitting process. Thus, concentrations of the compound, causing 50% of the maximally obtained inhibition of forskolin-induced cAMP accumulation (EC50), are averaged over several experiments and presented as mean pEC50±SEM. Antagonist potency is assessed by co-incubating cells with a fixed agonist concentration and specified antagonist concentrations. Curve fitting procedures are identical to those used for estimating EC50 values. Thus IC50 values, i.e. the concentration that is able to achieve 50% of maximal antagonism that can be achieved by this compound. IC50 values are corrected using a Cheng-Prussoff equation, correcting it for agonist concentration and EC50 values that is obtained in the same experiment. Thus, Kb=IC50/(1+[agonist]/EC50, agonist).The corresponding pA2 value is −log (Kb). Concentration-response curve fitting allows estimation of pEC50 values and of maximal achievable effect (intrinsic activity or efficacy (ε). A full receptor agonist has ε=1, a full receptor antagonist has ε=0, and a partial receptor agonist has an intermediate intrinsic activity.

Where [2] appears, read: receptor binding, read-out: Dopamine-D2 binding pKi (converted).
[3] abbreviates: receptor binding, read-out: 5-HT reuptake binding pKi (converted).

T2 sequence (P31652 whole entry): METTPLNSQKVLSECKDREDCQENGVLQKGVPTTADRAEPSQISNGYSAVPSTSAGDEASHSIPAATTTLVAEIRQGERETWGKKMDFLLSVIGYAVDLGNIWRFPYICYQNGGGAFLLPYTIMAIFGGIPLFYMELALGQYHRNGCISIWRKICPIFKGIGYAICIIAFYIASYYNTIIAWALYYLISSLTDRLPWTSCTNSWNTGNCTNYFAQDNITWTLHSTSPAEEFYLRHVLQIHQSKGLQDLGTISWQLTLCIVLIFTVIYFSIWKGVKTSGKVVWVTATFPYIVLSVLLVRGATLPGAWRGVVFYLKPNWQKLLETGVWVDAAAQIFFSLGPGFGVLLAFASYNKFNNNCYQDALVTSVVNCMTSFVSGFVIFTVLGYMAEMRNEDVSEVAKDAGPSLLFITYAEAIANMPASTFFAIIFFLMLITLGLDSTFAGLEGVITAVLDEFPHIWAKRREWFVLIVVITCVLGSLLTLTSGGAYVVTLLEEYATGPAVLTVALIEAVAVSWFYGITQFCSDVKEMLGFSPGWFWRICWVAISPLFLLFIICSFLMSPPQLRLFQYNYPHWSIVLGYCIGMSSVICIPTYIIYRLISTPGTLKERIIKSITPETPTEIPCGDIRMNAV
T3 sequence (P14416 whole entry): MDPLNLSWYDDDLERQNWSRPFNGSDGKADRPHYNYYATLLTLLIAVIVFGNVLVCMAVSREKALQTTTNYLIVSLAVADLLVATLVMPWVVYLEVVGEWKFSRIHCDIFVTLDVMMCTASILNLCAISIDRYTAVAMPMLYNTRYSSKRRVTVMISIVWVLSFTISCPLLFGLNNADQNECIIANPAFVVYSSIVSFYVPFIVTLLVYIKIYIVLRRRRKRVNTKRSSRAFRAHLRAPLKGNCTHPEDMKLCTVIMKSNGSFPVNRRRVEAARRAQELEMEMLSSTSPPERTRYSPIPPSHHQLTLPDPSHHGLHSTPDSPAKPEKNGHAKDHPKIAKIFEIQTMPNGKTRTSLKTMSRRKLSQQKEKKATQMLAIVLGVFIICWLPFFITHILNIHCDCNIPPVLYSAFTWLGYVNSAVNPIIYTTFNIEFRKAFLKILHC
T1 sequence (P61169 whole entry): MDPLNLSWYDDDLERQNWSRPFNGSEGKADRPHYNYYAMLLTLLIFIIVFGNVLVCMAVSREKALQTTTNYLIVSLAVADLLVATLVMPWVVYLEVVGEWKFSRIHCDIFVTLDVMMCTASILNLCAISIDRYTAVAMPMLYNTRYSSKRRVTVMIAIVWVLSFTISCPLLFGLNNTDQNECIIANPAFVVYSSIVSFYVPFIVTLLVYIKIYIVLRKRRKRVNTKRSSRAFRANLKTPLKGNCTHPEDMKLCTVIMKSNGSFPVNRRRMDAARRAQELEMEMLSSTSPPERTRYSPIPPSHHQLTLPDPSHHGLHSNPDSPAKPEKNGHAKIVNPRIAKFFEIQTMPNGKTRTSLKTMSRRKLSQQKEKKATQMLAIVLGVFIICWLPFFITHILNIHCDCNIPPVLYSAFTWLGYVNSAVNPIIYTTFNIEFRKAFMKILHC

On to `C[C@@H]1CN(c2cccc3[nH]c(=O)oc23)C[C@H](C)N1CCCc1c[nH]c2ccc(F)cc12` [compound 1], for which the Ki on dopamine-D2 receptors (setting [2]) is 20 nM; at serotonin reuptake sites (setting [3]) it was 5.01 nM. For the same compound, the “Dopamine-D2 cAMP accum ∈ (intrinsic activity)” value (“Dopamine-D2 cAMP accum ∈” for short) in series [1] amounted to 0.13.

`CC(CCc1c[nH]c2ccc(F)cc12)N1CCN(c2cccc3c2oc(=O)n3C)CC1` (centres unmarked) (as salt: HCl) [compound 2]: the melting point fell in the range of 207 to 209 °C.

Turning to `Cn1c(=O)oc2c(N3CCN(CCCCc4c[nH]c5ccc(C#N)cc45)CC3)cccc21` (as salt: HCl) [compound 12], the melting point fell in the range of 213 to 215 °C.

In the case of `CC(Cc1c[nH]c2ccc(F)cc12)CN1CCN(c2cccc3c2oc(=O)n3C)CC1` (centres unmarked) [compound 4], the melting point is 166 to 168 °C. For the same compound, at dopamine-D2 receptors (setting [2]), the Ki is 7.94 nM. The Ki at serotonin reuptake sites (setting [3]) is 2.51 nM. Moreover, the “Dopamine-D2 cAMP accum ∈” value in series [1] is on record as 0.22.

As to `Cn1c(=O)oc2c(N3CCN(CCCc4c[nH]c5ccc(F)cc45)CC3)cccc21` [compound 9], the melting point fell in the range of 135 to 137 °C. Moreover, the Ki at dopamine-D2 receptors (setting [2]) was 79.4 nM. In addition, on serotonin reuptake sites (setting [3]), the Ki was 7.94 nM. Moreover, in series [1], the “Dopamine-D2 cAMP accum ∈” value was determined as 0.12.

In turn, `Cn1c(=O)oc2c(N3CCN(CCCc4c[nH]c5ccc(F)cc45)CC3)cc(F)cc21` (as salt: HCl) [compound 15] gave a melting point of 246 to 249 °C.

On to `Cn1c(=O)oc2c(N3CCN(CCCc4c[nH]c5ccc(F)cc45)CC3)cc(F)cc21` [compound 15], for which the Ki at dopamine-D2 receptors (setting [2]) was 79.4 nM; at serotonin reuptake sites (setting [3]), 0.316 nM.

As for `Cn1c(=O)oc2c(N3CCN(CCCCc4c[nH]c5ccc(C#N)cc45)CC3)cccc21` [compound 12], the results for the Ki on dopamine-D2 receptors (setting [2]) and at serotonin reuptake sites (setting [3]) were 7.94 nM and less than 1 nM, respectively. For the same compound, in series [1], the “Dopamine-D2 cAMP accum ∈” value is 0.75.

With `CC(CCN1CCN(c2cccc3c2oc(=O)n3C)CC1)c1c[nH]c2ccc(F)cc12` (centres unmarked) [compound 3], the Ki at dopamine-D2 receptors (setting [2]) was 100 nM; at serotonin reuptake sites (setting [3]) it was 0.794 nM. In series [1], the “Dopamine-D2 cAMP accum ∈” value stood at 0.43.

In the case of `CCn1c(=O)oc2c(N3CCN(CCCc4c[nH]c5ccc(F)cc45)CC3)cccc21` (as salt: HCl) [compound 16], the melting point was in the range of 100 to 140 °C.

Take `Cn1cc(CCCN2CCN(c3cccc4c3oc(=O)n4C)CC2)c2cc(F)ccc21` [compound 8]: the values for the Ki on dopamine-D2 receptors (setting [2]) and at serotonin reuptake sites (setting [3]) were 31.6 nM and greater than 10 nM, respectively. Further, the “Dopamine-D2 cAMP accum ∈” value in series [1] was 0.44.

For the compound `CC(CCc1c[nH]c2ccc(F)cc12)N1CCN(c2cccc3c2oc(=O)n3C)CC1` (centres unmarked) [compound 2], the Ki on dopamine-D2 receptors (setting [2]) is 158 nM; at serotonin reuptake sites (setting [3]), 1 nM.

As for `Cn1c(=O)oc2c(N3CCN(CCCCc4c[nH]c5ccc(F)cc45)CC3)cccc21` [compound 11], the Ki on dopamine-D2 receptors (setting [2]) is 25.1 nM; on serotonin reuptake sites (setting [3]), greater than 10 nM. Further, in series [1], the “Dopamine-D2 cAMP accum ∈” value stood at 0.72.

Consider `Cc1cc(Cl)cc2c(CCCN3CCN(c4cccc5c4oc(=O)n5C)CC3)c[nH]c12` [compound 6], for which the melting point was 159 to 162 °C. The “Dopamine-D2 cAMP accum ∈” value in series [1] was determined as 0.52.

As to `Fc1ccc2[nH]cc(CCCN3CCN(c4cccc5[nH]c(=S)oc45)CC3)c2c1` [compound 17], the melting point is 238 to 240 °C (dec.). Besides, the Ki on dopamine-D2 receptors (setting [2]) is 15.8 nM. Further, the Ki on serotonin reuptake sites (setting [3]) is 5.01 nM. The “Dopamine-D2 cAMP accum ∈” value in series [1] is recorded as 0.32.

As for `Cn1cc(CCCN2CCN(c3cccc4c3oc(=O)n4C)CC2)c2cc(F)ccc21` (as salt: HCl) [compound 8], the melting point was > 225 °C (dec.).

Compound `Cn1c(=O)oc2c(N3CCN(CCCCc4c[nH]c5ccc(F)cc45)CC3)cccc21` (as salt: HCl) [compound 11] came in with a melting point of 254 to 256 °C.

`Cn1c(=O)oc2c(N3CCN(CCCc4c[nH]c5ccc(C#N)cc45)CC3)cccc21` [compound 10] returned a melting point of 151 to 152 °C. Also, the Ki at dopamine-D2 receptors (setting [2]) was 126 nM. At serotonin reuptake sites (setting [3]), the Ki was 3.98 nM. The “Dopamine-D2 cAMP accum ∈” value in series [1] turned out to be 0.66.

`CCn1c(=O)oc2c(N3CCN(CCCc4c[nH]c5ccc(F)cc45)CC3)cccc21` [compound 16]: the Ki at dopamine-D2 receptors (setting [2]) was 39.8 nM; at serotonin reuptake sites (setting [3]), less than 1 nM. In addition, in series [1], the “Dopamine-D2 cAMP accum ∈” value is on record as 0.15.

Take `Cn1cc(CCCN2CCN(c3cccc4c3oc(=O)n4C)CC2)c2cc(Cl)ccc21` [compound 7]: the melting point lay within 140 to 142 °C. Besides, at dopamine-D2 receptors (setting [2]), the Ki is 200 nM. The Ki at serotonin reuptake sites (setting [3]) is 2.51 nM. The “Dopamine-D2 cAMP accum ∈” value in series [1] came out at 0.15.

Take `CC(CCN1CCN(c2cccc3c2oc(=O)n3C)CC1)c1c[nH]c2ccc(F)cc12` (centres unmarked) (as salt: HCl) [compound 3]: the melting point was 100 to 140 °C (dec.).

`C[C@@H]1CN(c2cccc3[nH]c(=O)oc23)C[C@H](C)N1CCCc1c[nH]c2ccc(F)cc12` (as salt: HCl) [compound 1]: the melting point is 270 to 275 °C.

`Cn1c(=O)oc2c(N3CCN(CCc4c[nH]c5ccc(F)cc45)CC3)cccc21` [compound 13]: the melting point was 198 to 200 °C. On dopamine-D2 receptors, this compound had a Ki of 3.98 nM. Moreover, the Ki on serotonin reuptake sites was 3.16 nM. Further, the “Dopamine-D2 cAMP accum ∈” value in series [1] is 0.22.
